Values quoted from earlier work as cited in article PMC2748991 (Planta medica, 2009).

How the values were obtained:
elastase = conditions: ref [3],[4]
trypsin = conditions: ref [5]

| Substance | elastase inhibition (in words) (elastase) | trypsin inhibition (in words) (trypsin) |
| --- | --- | --- |
| lyngbyastatin 5 | potent inhibitors |  |
| lyngbyastatin 6 | potent inhibitors |  |
| pompanopeptin A |  | trypsin inhibitor |
